From ChEMBL document CHEMBL1124276, “Evaluation of the importance of hydrophobic interactions in drug binding to dihydrofolate reductase” (J Med Chem, 1988)

Experiments:
[1] = target: T1, Dihydrofolate reductase (Escherichia coli, UniProt P0ABQ4); experiment: Thermodynamic Dissociation Constant for compound-Val31-dihydrofolate reductase (DHFR) complex at pH 7
[2] = target: T1, Dihydrofolate reductase; experiment: Thermodynamic Dissociation Constant for compound-Phe31-dihydrofolate reductase (DHFR) complex at pH 7
[3] = target: T1, Dihydrofolate reductase; experiment: Thermodynamic Dissociation Constant for compound-Tyr31-dihydrofolate reductase (DHFR) complex at pH 7
[4] = target: T1, Dihydrofolate reductase; experiment: Thermodynamic Dissociation Constant for compound-Tyr31-dihydrofolate reductase (DHFR) complex at pH 6
[5] = target: T1, Dihydrofolate reductase; experiment: Inhibition constant for Val31-dihydrofolate reductase (DHFR)-NADPH-Compound complex
[6] = target: T2, Dihydrofolate reductase (Escherichia coli, UniProt P0ABQ4); experiment: Inhibition constant for Phe31-dihydrofolate reductase (DHFR)-NADPH-Compound complex
T2 sequence (P0ABQ4 whole entry): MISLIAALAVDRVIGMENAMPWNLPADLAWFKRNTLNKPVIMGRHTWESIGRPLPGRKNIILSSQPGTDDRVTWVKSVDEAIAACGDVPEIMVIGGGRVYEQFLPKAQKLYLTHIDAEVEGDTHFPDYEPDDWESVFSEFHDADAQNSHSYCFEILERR

[7] = target: T3, Dihydrofolate reductase (Escherichia coli) (UniProt P0ABQ4)
T3 sequence (whole entry): T2 sequence (P0ABQ4 whole entry)
Description: Constant at Tyr-31(Kr) of dihydrofolate reductase (DHFR)

[8] = target: T1, Dihydrofolate reductase; experiment: Thermodynamic Dissociation Constant for compound-Phe31-dihydrofolate reductase (DHFR) complex at pH 6
[9] = target: T3, Dihydrofolate reductase (Escherichia coli); remark: listed apart in the source
Description: Dissociation constant at(Koff) Tyr-31 of dihydrofolate reductase (DHFR)

[10] = target: T3, Dihydrofolate reductase (Escherichia coli); remark: listed apart in the source
Description: Constant, Kr at Phe-31 of dihydrofolate reductase (DHFR)

[11] = target: T1, Dihydrofolate reductase; experiment: Inhibition constant for Tyr31-dihydrofolate reductase (DHFR)-NADPH-Compound complex
[12] = target: T3, Dihydrofolate reductase (Escherichia coli); remark: listed apart in the source
Description: Dissociation constant(Koff) at Phe-31 of dihydrofolate reductase (DHFR)

[13] = target: T3, Dihydrofolate reductase (Escherichia coli); remark: listed apart in the source
Description: Association constant(Kon) at Tyr-31 of dihydrofolate reductase (DHFR)

[14] = target: T1, Dihydrofolate reductase; experiment: Thermodynamic Dissociation Constant for compound-Phe31-dihydrofolate reductase (DHFR) complex at pH 8.5
[15] = target: T1, Dihydrofolate reductase; experiment: Thermodynamic Dissociation Constant for compound-Val31-dihydrofolate reductase (DHFR) complex at pH 8.5
[16] = target: T1, Dihydrofolate reductase; experiment: Thermodynamic Dissociation Constant for compound-Tyr31-dihydrofolate reductase (DHFR) complex at pH 8.5

Row | SMILES | Kd [1] | Kd [2] | Kd [3] | Kd [4] | Ki [5] | Ki [6] | Kr [7] | Kd [8] | k off [9] | Kr [10] | Ki [11] | k off [12] | k on [13] | Kd [14] | Kd [15] | Kd [16]
1 | Nc1nc2ncc(CNc3ccc(C(=O)N[C@@H](CCC(=O)O)C(=O)O)cc3)nc2c(=O)[nH]1 [FOLIC ACID] | 4800 nM | 810 nM | 4400 nM |  |  |  |  |  |  |  |  |  |  |  |  | 
2 | Cc1nc2nc(N)nc(N)c2nc1C |  |  |  | 3900 nM | 9100 nM | 44 nM | 25 s⁻¹ | 1600 nM | 25 s⁻¹ | 24 s⁻¹ | 57 nM | 35 s⁻¹ | 6.8e+06 M⁻¹ s⁻¹ |  |  | 
3 | NC(=O)c1ccc[n+]([C@H]2O[C@@H](COP(=O)([O-])OP(=O)(O)OC[C@H]3O[C@@H](n4cnc5c(N)ncnc54)[C@H](OP(=O)(O)O)[C@@H]3O)[C@H](O)[C@@H]2O)c1 [NICOTINAMIDE ADENINE DINUCLEOTIDE PHOSPHATE] | 220 nM | 380 nM | 340 nM |  |  |  |  |  |  |  |  |  |  | 490 nM | 300 nM | 400 nM
